“Also recorded” adds a separate entry of the source.
Legend:
logD determination = assay type: physicochemical; settings: partition coefficient octanol/buffer pH 6.8
Experimental: (§1) Cellular Aβ release assays were done in CHO cells stably transfected with human wild‐type and human APP were done as described (Neumann et al, 2015). Determinations of logD, pKa, and binding to brain homogenates were done internally at Novartis, Basel. Plasma protein binding was determined by equilibrium dialysis using diluted plasma from the corresponding species. MDR‐1‐MDCK cells were obtained from Prof. A. Berns, Netherlands Cancer Institute, Amsterdam NL, and bi‐directional transport measurements were done as described (Rueeger et al, 2011). Receptor binding assays were done against an internal receptor panel and externally at Ricerca Biosciences, Peitou, Taiwan. In vitro binding and cellular patch clamp assays for hERG were done at Preclinical Safety, Novartis, Basel.

pKa determination = assay type: physicochemical; settings: cyclic amidine
Experimental: as §1

dogs = assay: Long-term toxicology studies in dogs; assay type: in vivo, dog
Experimental: In long‐term toxicology studies, dose‐limiting non‐specific central nervous system (CNS) effects (including impaired mobility and tremor) occurred in dogs at ≥ 30 mg/kg/day and in male rats (adverse effects only observed at doses ≥ 500 mg/kg/day). […] After CNP520 withdrawal, all changes either trended toward being, or were, fully reversible. The organs that were affected by drug toxicity in these animal studies either were not relevant to the clinical target population or the toxicities occurred at a dose substantially higher than the efficacious clinical dose.
(§2) In vivo animal toxicity studies were performed according to ICH guidance for industry M3(R2) and conformed to the Institutional Animal Care and Use Guidelines for the contract laboratory and sponsor. […] Recovery was assessed after a 12‐week treatment‐free period. Beagle dogs from Marshall BKU UK, 11 months of age, were given 0 (vehicle), 5, 15, or 30 mg/kg/day for 39 weeks. Vehicle consisted of 0.5% (w/v) methylcellulose (1,500 cPS) in 0.1% (v/v) polysorbate 80 (Tween®‐80) in reverse osmosis water. At necropsy, tissues were immersion fixed in 10% neutral‐buffered formalin or modified Davidson's solution and then processed by routine methods to paraffin block and hematoxylin–eosin (H&E)‐stained histologic slides.

[1] = tested on: Aβ40 in APOE4‐TR mouse forebrain; assay: Forebrain Aβ40 in APOE4-TR mice; assay type: in vivo; settings: highest dose of 17 mg/kg (30 μmol/kg), 4 h after dosing
Experimental: Data were analyzed with one way ANOVA and Dunnett's multiple comparison test. • B Distribution of APOE4 genotypes in the Phase IIa study versus their baseline Aβ42/40 ratios. The dashed line at Aβ42/40 ratio of 0.09 represents a cutoff, which separates a normal ratio from an abnormally low ratio. • C Comparison of CSF Aβ40 reduction in APOE4 non‐carriers and APOE4 carriers (mean ± SD). • D Comparison of CSFAβ40 reduction in participants with Aβ42/40 ≥ 0.09 and Aβ42/40 < 0.09 (mean ± SD). • E Comparison of Aβ42/40 ratio at baseline and at day 91 for all participants in the placebo, 35 mg, and 85‐mg dose group (mean ± SD, n = 25/group). • F Change of Aβ42/40 ratio for all participants with Aβ42/40 ≤ 0.09 at baseline; bars represent mean ± SD. […] Data were analyzed with one way ANOVA and Dunnett's multiple comparison test. […]
Electrochemiluminescence immunoassays (Mesoscale Diagnostics, Rockville, MD, USA) were used to determine Aβ38, Aβ40, Aβ42, sAPPα, and sAPPβ. For studies in normal mice and rats, the endogenous Aβ40 was extracted from the brain homogenate with 1% Triton X‐100, and the 4G8‐based assay kit was used for quantification according to the manufacturer's instructions. CSF was collected from the cisterna magna and also analyzed using the 4G8 kit. […] For studies in APP23 mice, Aβ40 and Aβ42 were determined after extraction with 70% formic acid and subsequent neutralization.

[2] = tested on: Calcium channel L-type, phenylalkylamine site; assay: Receptor panel binding; set-up: species or system Rat
Experimental: as §1

[3] = tested on: Imidazoline I2 receptor central; assay: Receptor panel binding; set-up: species or system Rat
Experimental: as §1

[4] = tested on: Sodium channel, binding site 2; assay: Receptor panel binding; set-up: species or system Rat
Experimental: as §1

[5] = Animal toxicology studies, any species; assay type: in vivo
Experimental: as §2

## C[C@@]1(c2nc(NC(=O)c3ncc(C(F)(F)F)cc3Cl)ccc2F)CO[C@@](C)(C(F)(F)F)C(N)=N1 [CNP520]
logD determination
  logD: 3.5
pKa determination
  pKa: 7.2
dogs; dog, authors' response in review file
  No Adverse Effect Level: 30 mg/kg/day
dogs; dogs, long-term toxicology
  dose with dose-limiting non-specific CNS effects (impaired mobility, tremor): ≥ 30 mg/kg/day
[1]
  reduction in Aβ40: 77%
[2]
  inhibition at 10 µM: 78%
[3]
  inhibition at 10 µM: 61%
[4]
  inhibition at 10 µM: 104%
[5]; any species
  morphological changes in CNS, peripheral nervous system, liver, endocrine pancreas, retina, skin: No morphological changes were identified
[5]; including 9 months dosing in dogs
  depigmentation in long-term animal toxicology studies: no signs of depigmentation; also recorded: did not result in hair depigmentation
[5]; long-term toxicological studies in rats and dogs
  retinal degeneration: no retinal degeneration
